Source: ChEMBL document CHEMBL1157517, “Hepatitis C virus NS3-4A serine protease inhibitors: SAR of new P1 derivatives of SCH 503034” (Bioorg Med Chem Lett, 2008)

Legend:
[1] = Inhibition of HCV NS3 serine protease; set-up: species or system Hepacivirus hominis
Hepatitis C virus = experiment: Antiviral activity against HCV; type: functional, Hepacivirus hominis
[2] = AUC in rat at 3 mg/kg, po; type: ADME, organism-based; set-up: dose 3 mg/kg, route oral; details: plasma

Compound	Ki [1]	EC90 (Hepatitis C virus)	AUC [2]
CC(C)(C)NC(=O)N[C@H](C(=O)N1C[C@H]2[C@@H]([C@H]1C(=O)NC(CC1(O)CCC1)C(=O)C(N)=O)C2(C)C)C(C)(C)C (stereo partly drawn)	163000 nM	–	–
CC(C)(C)NC(=O)N[C@H](C(=O)N1C[C@H]2[C@@H]([C@H]1C(=O)NC(CC1CC(F)(F)C1)C(=O)C(N)=O)C2(C)C)C(C)(C)C (stereo partly drawn)	98 nM	1200 nM	1.1 µM·h
CC(C)(C)NC(=O)N[C@H](C(=O)N1C[C@H]2[C@@H]([C@H]1C(=O)NC(CC(F)(F)F)C(=O)C(N)=O)C2(C)C)C(C)(C)C (stereo partly drawn)	120 nM	–	–
CC(F)(F)CC(NC(=O)[C@@H]1[C@@H]2[C@H](CN1C(=O)[C@@H](NC(=O)NC(C)(C)C)C(C)(C)C)C2(C)C)C(=O)C(N)=O (stereo partly drawn)	230 nM	–	–
CCC(F)(F)CC(NC(=O)[C@@H]1[C@@H]2[C@H](CN1C(=O)[C@@H](NC(=O)NC(C)(C)C)C(C)(C)C)C2(C)C)C(=O)C(N)=O (stereo partly drawn)	360 nM	–	–
CC(C)(C)NC(=O)N[C@H](C(=O)N1C[C@H]2[C@@H]([C@H]1C(=O)NC(CCC(F)(F)F)C(=O)C(N)=O)C2(C)C)C(C)(C)C (stereo partly drawn)	65 nM	600 nM	0.02 µM·h
CC(C)(C)NC(=O)N[C@H](C(=O)N1C[C@H]2[C@@H]([C@H]1C(=O)NC(C[C@H]1C[C@@H](O)C1)C(=O)C(N)=O)C2(C)C)C(C)(C)C (stereo partly drawn)	160 nM	–	–
CC(C)(C)NC(=O)N[C@H](C(=O)N1C[C@H]2[C@@H]([C@H]1C(=O)NC(CCCC(F)(F)F)C(=O)C(N)=O)C2(C)C)C(C)(C)C (stereo partly drawn)	1300 nM	–	–
CC(C)(C)NC(=O)N[C@H](C(=O)N1C[C@H]2[C@@H]([C@H]1C(=O)NC(CC1(F)CCC1)C(=O)C(N)=O)C2(C)C)C(C)(C)C (stereo partly drawn)	210 nM	–	0.31 µM·h
CC(C)(C)NC(=O)N[C@H](C(=O)N1C[C@H]2[C@@H]([C@H]1C(=O)NC(CC1CC1(F)F)C(=O)C(N)=O)C2(C)C)C(C)(C)C (stereo partly drawn)	50 nM	1000 nM	–
CC(C)(C)NC(=O)N[C@H](C(=O)N1C[C@H]2[C@@H]([C@H]1C(=O)NC(CC1CCC1)C(=O)C(N)=O)C2(C)C)C(C)(C)C (stereo partly drawn) [BOCEPREVIR]	14 nM	350 nM	–
